According to patent publication US5298622A, “Spiroindane opiate analogs” (priority 1993, dated 1994):
Non-standard residues stand in square brackets, D forms with d. Residues, ends and D or L forms follow the SMILES beside them. *: point of attachment. Tyr(Nα,Nα-allyl2) = C=CCN(CC=C)[C@@H](Cc1ccc(O)cc1)C(=O)*; Aib = CC(C)(N)C(=O)O

How the values were obtained:
[1] = tested on: ethanol drinking; settings: J. C. Froehlich et al. 1991; cited from earlier work
[2] = target: T1, mu opioid receptor (Cavia porcellus, UniProt A0ACM8Q262); assay: GPI assay, antagonism of morphine (mu); type: cell-based, guinea pig; settings: antagonist 100 nM, 15 min; for Kb: read-out: GPI Antagonism Ke (Morphine), Ke=[antagonist]/(IC50 ratio-1); for GPI Antagonism IC50 Ratio (Morphine): agonist morphine (mu)
T1 construct: antagonism of morphine
Description: (§1) 1. Guinea Pig Ileal Longitudinal Muscle (GPI). Ilea from guinea pigs were taken approximately 10 cm from the ileocecal junction, and a strip of longitudinal muscle with the myenteric plexus attached was prepared by the method of H. B. Rang et al., Brit. J. Pharmacol., 22, 356 (1964). A 1 cm portion of this strip was then mounted between two platinum electrodes placed in a 10 ml organ bath and connected to an isometric transducer; contractions were recorded on a polygraph. Contractions of the ileal strip were initiated by supramaximal rectangular pulses in all preparations (80 V of 0.5 ms duration at a frequency of 0.1 Hz). Krebs bicarbonate solution containing 1.25 μM chlorpheniramine maleate was the bathing solution and was continuously bubbled with 95% O2 and 5% CO2. The organ bath was maintained at 36°-37° C. The longitudinal muscle strip was allowed to equilibrate with continuous stimulation for a minimum of 90 min. Cumulative concentration-response curves were determined after drugs were added to the bath in 10- to 50-μl amounts and washed out with two 10 ml portions of buffer after noting their maximum effects.
(§2) Concentration-response curves were obtained in the absence (control) and the presence of the antagonist are expressed as IC50 values. The IC50 ratio represents the IC50 in the presence of the antagonist divided by the control IC50 value in the same tissue. Therefore, a high IC50 ratio represents a correspondingly high degree of antagonism at a particular receptor. This IC50 ratio was employed to calculate the Ke value using the equation Ke=[antagonist]/(IC50 ratio-1). Therefore, a low Ke represents a correspondingly high degree of binding at a particular receptor.

[3] = target: T2, delta opioid receptor (Mus musculus, UniProt P32300); assay: MVD assay, antagonism of DADLE (delta); type: cell-based; settings: for Kb: read-out: MVD Antagonism Ke (DADLE); for δ-antagonist activity (in words): δ-selective agonist; for MVD Antagonism IC50 Ratio (DADLE): antagonist 100 nM, 15 min, agonist DADLE (delta)
T2 construct: Both vasa deferentia were dissected out of mice; from tissue; host or cells: mouse vas deferens
Description: (§3) 2. Mouse Vas (MVD). This assay was performed according to the description by G. Henderson et al., Brit. J. Pharmacol., 46, 764 (1972). Both vasa deferentia were dissected out of mice and mounted singly through two platinum ring electrodes in a 10 ml organ bath. The bath contained Krebs bicarbonate solution that was continuously bubbled with 95% O2 and 5% CO2. The organ bath was maintained at 37° C. The tissue was attached to an isometric transducer and stimulated transmurally with rectangular pulses ([…], 1 ms duration, supramaximal voltage). Drugs were added cumulatively to the bath in 10- to 50-μl amounts and washed out after noting their maximum effect.
as §2

[4] = tested on: delta opioid receptor; settings: U.S. Pat. No. 4,816,586; cited from earlier work
[5] = tested on: rats selectively bred for high voluntary ethanol drinking; settings: Ser. No. 07/750,109; cited from earlier work
[6] = tested on: recovering alcoholics; settings: J. R. Volpicelli et al. 1990; cited from earlier work
[7] = tested on: Guinea Pig Ileal Longitudinal Muscle (GPI), mu opioid receptor; assay: cells; type: cell-based
Description: as §1, §2

[8] = tested on: mouse vas deferens (MVD), delta opioid receptor; assay: Mouse vas deferens (MVD) assay, agonism; type: cell-based; settings: % Inhibition at 1000 nM (footnote 4); for inhibition at 1 µM: Mus musculus
Description: as §3, §2

[9] = target: T3, kappa opioid receptor (Cavia porcellus, UniProt P41144); assay: GPI assay, antagonism of ethylketazocine (EK, kappa); type: cell-based, guinea pig; settings: antagonist 100 nM, 15 min; agonist ethylketazocine (kappa)
T3 construct: a strip of longitudinal muscle with the myenteric plexus attached was prepared; from tissue; host or cells: guinea pig ileum, longitudinal muscle strip with myenteric plexus
Description: as §1
Concentration-response curves were obtained in the absence (control) and the presence of the antagonist are expressed as IC50 values. The IC50 ratio represents the IC50 in the presence of the antagonist divided by the control IC50 value in the same tissue. […]

[10] = tested on: rat model of alcoholism; settings: J. C. Froehlich et al. 1990; cited from earlier work
[11] = GPI, % Inhibition at 1000 nM (footnote 4)

T2 sequence (P32300 whole entry): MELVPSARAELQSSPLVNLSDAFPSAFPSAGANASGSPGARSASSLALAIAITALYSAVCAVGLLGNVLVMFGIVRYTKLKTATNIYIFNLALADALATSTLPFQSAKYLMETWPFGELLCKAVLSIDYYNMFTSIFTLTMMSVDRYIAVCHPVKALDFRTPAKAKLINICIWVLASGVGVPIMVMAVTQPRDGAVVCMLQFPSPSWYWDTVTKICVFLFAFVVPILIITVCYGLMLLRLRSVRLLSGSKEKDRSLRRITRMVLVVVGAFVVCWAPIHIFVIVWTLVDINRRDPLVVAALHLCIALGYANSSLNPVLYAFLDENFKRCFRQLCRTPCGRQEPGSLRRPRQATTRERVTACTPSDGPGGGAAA
T1 sequence (A0ACM8Q262 1-400): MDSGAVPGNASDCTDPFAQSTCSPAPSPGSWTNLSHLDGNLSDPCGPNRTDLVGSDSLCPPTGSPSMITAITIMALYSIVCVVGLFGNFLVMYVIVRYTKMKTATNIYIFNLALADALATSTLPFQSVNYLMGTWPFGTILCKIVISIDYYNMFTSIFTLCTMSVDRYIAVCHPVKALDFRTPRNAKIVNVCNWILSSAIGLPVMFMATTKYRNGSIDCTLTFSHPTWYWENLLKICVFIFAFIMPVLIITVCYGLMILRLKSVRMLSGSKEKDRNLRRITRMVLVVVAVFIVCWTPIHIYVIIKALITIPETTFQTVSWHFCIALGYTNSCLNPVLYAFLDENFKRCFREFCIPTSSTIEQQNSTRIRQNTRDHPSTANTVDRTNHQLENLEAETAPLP
T3 sequence (P41144 whole entry): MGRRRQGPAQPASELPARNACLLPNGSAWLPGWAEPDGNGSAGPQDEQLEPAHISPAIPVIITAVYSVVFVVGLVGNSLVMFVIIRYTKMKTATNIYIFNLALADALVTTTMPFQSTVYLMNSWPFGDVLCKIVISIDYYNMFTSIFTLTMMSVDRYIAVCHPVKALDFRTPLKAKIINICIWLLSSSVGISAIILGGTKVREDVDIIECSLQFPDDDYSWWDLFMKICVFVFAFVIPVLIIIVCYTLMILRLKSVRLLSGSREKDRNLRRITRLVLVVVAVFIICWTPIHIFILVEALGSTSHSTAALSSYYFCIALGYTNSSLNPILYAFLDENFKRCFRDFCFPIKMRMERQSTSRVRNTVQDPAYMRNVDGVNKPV

For `C=CCN(CC=C)[C@@H](Cc1ccc(O)cc1)C(=O)NC(C)(C)C(=O)NC(C)(C)C(=O)N[C@@H](Cc1ccccc1)C(=O)N[C@@H](CC(C)C)C(=O)O` [ICI 174864, N,N-diallyl-Tyr-Aib-Aib-Phe-Leu-OH] ({Tyr(Nα,Nα-allyl2)}-[Aib][Aib]FL-OH), the duration of action [1] is given as “very short duration of action” and the ethanol drinking [1] is given as “strongly inhibits ethanol drinking”.

With `O=C1[C@@H]2Oc3c(O)ccc4c3[C@@]23CCN(CC2CC2)[C@H](C4)[C@]3(O)CC12Cc1ccccc1C2` [Compound 3a] the Kb [2] was 41 nM, the Kb [3] was 0.78 nM and the “δ-antagonist activity (in words)” value [3] was “potent δ-antagonist activity”.

For `Oc1ccc2c3c1O[C@H]1c4[nH]c5ccccc5c4C[C@@]4(O)[C@@H](C2)N(CC2CC2)CC[C@]314` [NTI, naltrindole], the “selectivity and potency at delta receptors” value [4] is given as “highly selective” and the “ethanol drinking and water intake” value [5] is given as “unexpectedly prolonged suppression of ethanol drinking without altering water intake”.

In the case of `O=C1CC[C@@]2(O)[C@H]3Cc4ccc(O)c5c4[C@@]2(CCN3CC2CC2)[C@H]1O5` [naltrexone], the “incidence of relapse in recovering alcoholics” value [6] is listed as “reduce the incidence of relapse in recovering alcoholics”.

In the case of “7-(5'-Methoxy-2'-spiroindano)naltrexone and 7-(6'-Methoxy-2'-spiroindano)naltrexone [Compound 3c]”, the “GPI Agonism % Inhibition” value [7, 11] is reported as -8.8% and the “MVD Agonism % Inhibition” value [8] is reported as 10.5%.

In the case of “7-(4,-Methoxy-2,-spiroindano)naltrexone and 7-(7' -Methoxy-2'-spiroindano)-naltrexone [Compound 3b]”, the “GPI Agonism % Inhibition” value [7, 11] is reported as -15.0%, the Kb [2] is reported as 13.4 nM and the “MVD Agonism % Inhibition” value [8] is reported as 23.1%.

For `Oc1ccc2c3c1O[C@H]1c4oc5ccccc5c4C[C@@]4(O)[C@@H](C2)N(CC2CC2)CC[C@]314` [NTB], the “ethanol drinking and water intake” value [5] is given as “unexpectedly prolonged suppression of ethanol drinking without altering water intake”.

With `O=C1[C@@H]2Oc3c(O)ccc4c3[C@@]23CCN(CC2CC2)[C@H](C4)[C@]3(O)CC12Cc1cc3ccccc3cc1C2` [Compound 3d, 7-(5',6'-Benz-2'-spiroindano)naltrexone] the “agonist activity for μ-receptors (in words)” value [7] was “potent agonist activity”, the IC50 ([7]; Cavia porcellus, read-out: GPI Agonism IC50) was 253 nM and the “GPI Agonism Potency (relative to morphine)” value ([7]; GPI, morphine = 1) was 0.47. For the same compound, the “GPI Antagonism IC50 Ratio (Morphine)” value [2] was 0.97, the “GPI Antagonism IC50 Ratio (EK)” value [9] was 0.18 and the inhibition at 1 µM [8] was 15.4%. The “MVD Antagonism IC50 Ratio (DADLE)” value [3] was 428, the Kb [3] was 0.234 nM and the “δ-antagonist activity (in words)” value [3] was “most potent antagonist”.

With `O=C1[C@@H]2Oc3c(O)ccc4c3[C@@]23CCN(CC2CC2)[C@H](C4)[C@]3(O)CC12Cc1cccc3cccc(c13)C2` [Compound 3f, 7-(2',3'-Dihydro-2'-spiroperinaphtheno)naltrexone] the inhibition at 1 µM ([7]; Cavia porcellus, GPI, % Inhibition at 1000 nM (footnote 4), read-out: GPI Agonism % Inhibition) was 16%, the “GPI Antagonism IC50 Ratio (Morphine)” value [2] was 0.89 and the “GPI Antagonism IC50 Ratio (EK)” value [9] was 0.39. The inhibition at 1 µM [8] was 13%, the “MVD Antagonism IC50 Ratio (DADLE)” value [3] was 8 and the Kb [3] was 14.9 nM.

For “7-(4',5'-Benz-2'-spiroindano)naltrexone and 7-(6',7'-Benz-2'-spiroindano)naltrexone [Compound 3e]”, the “GPI Agonism % Inhibition” value [7, 11] was 20.3% and the “MVD Agonism % Inhibition” value [8] was 15.6%.

For `C=CCN1CC[C@]23c4c5ccc(O)c4O[C@H]2C(=O)CC[C@@]3(O)[C@H]1C5` [Naloxone], the “ethanol and water intake” value [10] is listed as “suppress ethanol but not water intake”.
